Measurements as given in patent publication US20120124703A1, “NOVEL COPRINUS COMATUS AND TREMELLA MESENTERICA MUSHROOM STRAINS, PRODUCTS AND EXTRACTS THEREOF AND COMPOSITIONS COMPRISING THEM” (PALMED TEVA LTD, priority 2009, published 2012).

Experiments:
[1] = Antioxidant activity, β-carotene bleaching method; assay type: biochemical
Method: β-Carotene Bleaching Method. The antioxidant activity of C. comatus extracts was determined according to the β-carotene bleaching method. A reagent mixture containing 1 ml of (3-carotene (Sigma) solution (0.2 mg/ml in chloroform), 0.02 ml of linoleic acid (Sigma), and 0.2 ml of Tween 80 (Sigma) was evaporated to dryness under a nitrogen stream. Fifty milliliters of oxygenated distilled water and 0.2 ml of mushroom crude extracts (either ethanol or culture liquid) with different concentrations (2-8 mg/ml) were added. Pure methanol or water (0.2 ml) was used as the control, and the blank contained all the earlier chemicals except β-carotene. All these mixtures were then shaken to form a liposome solution and then incubated at 50° C. for 2 h. The absorbance of an aliquot (1 ml) of these liposome solutions at 470 nm was monitored by a spectrophotometer at time intervals of 20 min. Butylated hydroxyanisole (BHA) (Sigma) (2 mg/ml in methanol) was used as the standard. […] The bleaching rate (R) of 13-carotene was calculated according to
where: ln—natural log, a—absorbance at time 0, b—absorbance at time t, and t—incubation interval 20, 40, 60, 80, 100, or 120 min.
The antioxidant activity (AOA) was calculated, in terms of percent inhibition relative to the control, using Equation (2) […]

[2] = Scavenging activity on DPPH radicals; assay type: biochemical; details: standard BHA 1 mg/ml
Method: Scavenging Activity on 1,1-diphenyl-2-picrylhydrazyl. The scavenging activity of extracts from C. comatus was measured on 1,1-diphenyl-2-picrylhydrazyl (DPPH) radicals. An aliquot of 0.5 ml of 0.1 mM DPPH radical (Sigma) in methanol was added to a test tube with 1 mL of mushroom ethanol or water extract of different concentrations (0.5 to 9 mg/mL). Methanol or water was used instead of the mushroom sample as a control. The reaction mixture was vortex-mixed at room temperature and the absorbance was determined immediately after mixing by measuring at 520 nm with a spectrophotometer. Inhibition of free radicals by DPPH was calculated as follows: I (%)=(Ablank−Asample/Ablank)×100, where I is inhibition (%), Ablank is the absorbance of the control reaction (containing all reagents except the test compound), and Asample is the absorbance of the test compound. The extract concentration providing 50% inhibition (EC50) was calculated from the graph of scavenging activity of radical percentage against extract concentration. Butylated hydroxyanisole (BHA) in concentration of 1 mg/ml methanol was used as the standard. Each value is expressed as mean±standard deviation (n=3).
Free-radical scavenging is one of the known mechanisms by which antioxidants inhibit lipid oxidation. […] The decrease in absorbance is taken as a measure of the extent of radical-scavenging.

For `COc1ccc(O)c(C(C)(C)C)c1` [BHA, Butylated hydroxyanisole], the “Antioxidant activity (%) of water extracts” value ([1]; extract concentration 2.0 mg/mL, BHA 2 mg/mL in methanol) was 98.2%, the “Antioxidant activity (%) of ethanol extracts” value ([1]; extract concentration 2.0 mg/ml, BHA 2 mg/ml in methanol) was 98.2% and the “Scavenging ability (% of inhibition)” value [2] was 92.0%.
